Measurements reported in paper PMC12090182, “Repurposing of the RIPK1-Selective Benzo[1,4]oxazepin-4-one Scaffold for the Development of a Type III LIMK1/2 Inhibitor” (ACS Chemical Biology, 2025).

Columns and labels:
Format in all cases: binding
[1] = target: EGFR(L747-S752del, P753S) (Homo sapiens, UniProt P00533, DEL747-752/P753S); experiment: biochemical; conditions: compound concentration 100 nM; Entrez EGFR; read-out: Percent Control
[2] = target: KIT(V559D,V654A) (Homo sapiens, UniProt P10721, V559D/V654A); experiment: biochemical; conditions: read-out: Percent Control
[3] = target: PKMYT1A (Homo sapiens, UniProt Q99640); experiment: DSF selectivity screening; conditions: 10 μM compound
Procedure: (§1) The assay was performed as previously described.[29],[35] Briefly, recombinant protein kinase domains at a concentration of 2 μM were mixed with a 10 μM compound in a buffer containing 20 mM HEPES, pH 7.5, and 500 mM NaCl. SYPRO Orange (5000×, Invitrogen) was added as a fluorescence probe (1 μL per mL). Subsequently, temperature-dependent protein unfolding profiles were measured using a QuantStudio 5 real-time PCR machine (Thermo Fisher). Excitation and emission filters were set to 465 and 590 nm, respectively. The temperature was raised with a step rate of 3 °C per minute. Data points were analyzed with internal software (Thermal Shift Software version 1.4, Thermo Fisher) using the Boltzmann equation to determine the inflection point of the transition curve (Table S4).

[4] = target: VRK1A (Homo sapiens, UniProt Q99986); experiment: DSF selectivity screening; conditions: 10 μM compound
Procedure: as §1

[5] = target: CAMKK2B (Homo sapiens, UniProt Q96RR4); experiment: DSF selectivity screening; conditions: 10 μM compound
Procedure: as §1

[6] = target: GSG2A (Homo sapiens, UniProt Q8TF76); experiment: DSF selectivity screening; conditions: 10 μM compound
Procedure: as §1

[7] = target: BMP2KA (Homo sapiens, UniProt Q9NSY1); experiment: DSF selectivity screening; conditions: 10 μM compound
Procedure: as §1

[8] = target: MAP3K5A (Homo sapiens, UniProt Q99683); experiment: DSF selectivity screening; conditions: 10 μM compound
Procedure: as §1

[9] = target: SRCA (Homo sapiens, UniProt P12931); experiment: DSF selectivity screening; conditions: 10 μM compound
Procedure: as §1

[10] = target: FESA (Homo sapiens, UniProt P07332); experiment: DSF selectivity screening; conditions: 10 μM compound
Procedure: as §1

[11] = target: MAPK14A (Homo sapiens, UniProt Q16539); experiment: DSF selectivity screening; conditions: 10 μM compound
Procedure: as §1

[12] = target: GSK3BB (Homo sapiens, UniProt P49841); experiment: DSF selectivity screening; conditions: 10 μM compound
Procedure: as §1

[13] = target: DYRK1AA (Homo sapiens, UniProt Q13627); experiment: DSF selectivity screening; conditions: 10 μM compound
Procedure: as §1

[14] = target: MARK4A (Homo sapiens, UniProt Q96L34); experiment: DSF selectivity screening; conditions: 10 μM compound
Procedure: as §1

[15] = target: MAP2K6A (Homo sapiens, UniProt P52564); experiment: DSF selectivity screening; conditions: 10 μM compound
Procedure: as §1

[16] = target: TIF1A (Homo sapiens, UniProt O15164); experiment: DSF selectivity screening; conditions: 10 μM compound
Procedure: as §1

[17] = target: PLK4A (Homo sapiens, UniProt O00444); experiment: DSF selectivity screening; conditions: 10 μM compound
Procedure: as §1

[18] = target: FECH (Homo sapiens, UniProt P22830); experiment: DSF selectivity screening; conditions: 10 μM compound
Procedure: as §1

[19] = test system: CDC42BPAA; experiment: DSF selectivity screening; conditions: 10 μM compound
Procedure: as §1

[20] = target: STK38LA (Homo sapiens, UniProt Q9Y2H1); experiment: DSF selectivity screening; conditions: 10 μM compound
Procedure: as §1

[21] = target: CDKL1A (Homo sapiens, UniProt Q00532); experiment: DSF selectivity screening; conditions: 10 μM compound
Procedure: as §1

[22] = target: PIM3A (Homo sapiens, UniProt Q86V86); experiment: DSF selectivity screening; conditions: 10 μM compound
Procedure: as §1

[23] = target: MAPK15A (Homo sapiens, UniProt Q8TD08); experiment: DSF selectivity screening; conditions: 10 μM compound
Procedure: as §1

[24] = target: BMPR2A (Homo sapiens, UniProt Q13873); experiment: DSF selectivity screening; conditions: 10 μM compound
Procedure: as §1

[25] = target: DAPK1A (Homo sapiens, UniProt P53355); experiment: DSF selectivity screening; conditions: 10 μM compound
Procedure: as §1

[26] = target: HIPK2 (Homo sapiens, UniProt Q9H2X6); experiment: DSF selectivity screening; conditions: 10 μM compound
Procedure: as §1

[27] = target: MERTKA (Homo sapiens, UniProt Q12866); experiment: DSF selectivity screening; conditions: 10 μM compound
Procedure: as §1

[28] = target: CASKA (Homo sapiens, UniProt O14936); experiment: DSF selectivity screening; conditions: 10 μM compound
Procedure: as §1

[29] = target: FGFR2A (Homo sapiens, UniProt P21802); experiment: DSF selectivity screening; conditions: 10 μM compound
Procedure: as §1

[30] = target: OSR1A (Homo sapiens, UniProt O95747); experiment: DSF selectivity screening; conditions: 10 μM compound
Procedure: as §1

[31] = target: GPRK5A (Homo sapiens, UniProt P34947); experiment: DSF selectivity screening; conditions: 10 μM compound
Procedure: as §1

[32] = target: AKT3A (Homo sapiens, UniProt Q9Y243); experiment: DSF selectivity screening; conditions: 10 μM compound
Procedure: as §1

[33] = target: EPHB1A (Homo sapiens, UniProt P54762); experiment: DSF selectivity screening; conditions: 10 μM compound
Procedure: as §1

[34] = target: STK39A (Homo sapiens, UniProt Q9UEW8); experiment: DSF selectivity screening; conditions: 10 μM compound
Procedure: as §1

[35] = target: MAPK8B (Homo sapiens, UniProt P45983); experiment: DSF selectivity screening; conditions: 10 μM compound
Procedure: as §1

[36] = target: EPHA7A (Homo sapiens, UniProt Q15375); experiment: DSF selectivity screening; conditions: 10 μM compound
Procedure: as §1

[37] = target: PIK3CA(H1047Y) (Homo sapiens, UniProt P42336, H1047Y); experiment: biochemical; conditions: compound concentration 100 nM; Entrez PIK3CA; read-out: Percent Control
[38] = target: ABL1(T315I)-nonphosphorylated (Homo sapiens, UniProt P00519, T315I); experiment: biochemical; conditions: read-out: Percent Control

Chain of FGFR2A (P21802 458-770): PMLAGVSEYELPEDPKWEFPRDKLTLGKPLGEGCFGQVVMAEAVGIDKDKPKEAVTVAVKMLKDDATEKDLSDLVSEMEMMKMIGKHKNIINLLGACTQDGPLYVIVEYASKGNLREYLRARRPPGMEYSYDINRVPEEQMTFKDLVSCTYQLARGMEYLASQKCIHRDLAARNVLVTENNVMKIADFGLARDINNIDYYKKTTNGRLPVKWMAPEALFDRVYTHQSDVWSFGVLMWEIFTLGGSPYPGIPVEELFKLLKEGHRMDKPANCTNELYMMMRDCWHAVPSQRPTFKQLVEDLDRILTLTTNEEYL
Chain of PLK4A (O00444 2-275): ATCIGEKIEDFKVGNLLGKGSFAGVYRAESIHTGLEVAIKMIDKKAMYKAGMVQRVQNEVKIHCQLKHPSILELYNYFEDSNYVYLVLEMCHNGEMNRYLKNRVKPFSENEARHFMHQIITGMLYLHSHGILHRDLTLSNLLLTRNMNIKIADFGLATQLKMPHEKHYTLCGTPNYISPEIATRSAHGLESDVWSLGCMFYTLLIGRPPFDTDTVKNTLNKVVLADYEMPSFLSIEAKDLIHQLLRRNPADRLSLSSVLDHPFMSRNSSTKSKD
Chain of CDKL1A (Q00532 whole entry): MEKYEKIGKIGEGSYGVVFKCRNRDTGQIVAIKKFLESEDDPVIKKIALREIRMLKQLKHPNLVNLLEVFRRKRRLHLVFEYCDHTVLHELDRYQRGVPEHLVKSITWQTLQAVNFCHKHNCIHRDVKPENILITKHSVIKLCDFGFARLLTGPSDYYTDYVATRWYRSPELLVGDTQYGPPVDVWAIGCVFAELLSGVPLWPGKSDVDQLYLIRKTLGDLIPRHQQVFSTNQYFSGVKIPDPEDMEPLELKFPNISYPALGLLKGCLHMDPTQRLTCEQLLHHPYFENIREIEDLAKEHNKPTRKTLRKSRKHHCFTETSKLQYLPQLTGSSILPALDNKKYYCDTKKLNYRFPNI
Chain of MARK4A (Q96L34 59-310): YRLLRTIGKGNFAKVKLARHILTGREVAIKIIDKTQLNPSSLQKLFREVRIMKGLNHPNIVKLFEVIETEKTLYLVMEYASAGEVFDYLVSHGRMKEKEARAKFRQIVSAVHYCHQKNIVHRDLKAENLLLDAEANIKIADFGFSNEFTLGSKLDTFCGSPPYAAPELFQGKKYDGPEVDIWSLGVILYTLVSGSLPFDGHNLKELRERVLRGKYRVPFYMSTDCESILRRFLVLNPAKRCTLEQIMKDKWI
Chain of CASKA (O14936 12-276): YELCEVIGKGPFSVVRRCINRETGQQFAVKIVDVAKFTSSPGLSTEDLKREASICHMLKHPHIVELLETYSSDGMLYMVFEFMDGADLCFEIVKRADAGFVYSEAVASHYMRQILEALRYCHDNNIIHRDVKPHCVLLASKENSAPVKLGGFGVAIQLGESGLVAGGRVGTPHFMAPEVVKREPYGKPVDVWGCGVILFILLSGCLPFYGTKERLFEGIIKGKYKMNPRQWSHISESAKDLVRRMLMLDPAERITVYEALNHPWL
Chain of AKT3A (Q9Y243 148-479): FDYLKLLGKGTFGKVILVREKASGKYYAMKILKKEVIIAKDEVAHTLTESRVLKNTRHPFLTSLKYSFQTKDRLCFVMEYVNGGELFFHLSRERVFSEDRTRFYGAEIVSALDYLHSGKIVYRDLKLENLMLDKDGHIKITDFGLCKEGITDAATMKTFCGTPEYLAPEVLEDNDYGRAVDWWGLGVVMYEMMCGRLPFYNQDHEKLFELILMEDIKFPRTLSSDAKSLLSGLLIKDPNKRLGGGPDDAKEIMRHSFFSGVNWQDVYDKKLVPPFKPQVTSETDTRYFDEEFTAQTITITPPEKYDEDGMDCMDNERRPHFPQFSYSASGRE
Chain of EPHB1A (P54762 602-896): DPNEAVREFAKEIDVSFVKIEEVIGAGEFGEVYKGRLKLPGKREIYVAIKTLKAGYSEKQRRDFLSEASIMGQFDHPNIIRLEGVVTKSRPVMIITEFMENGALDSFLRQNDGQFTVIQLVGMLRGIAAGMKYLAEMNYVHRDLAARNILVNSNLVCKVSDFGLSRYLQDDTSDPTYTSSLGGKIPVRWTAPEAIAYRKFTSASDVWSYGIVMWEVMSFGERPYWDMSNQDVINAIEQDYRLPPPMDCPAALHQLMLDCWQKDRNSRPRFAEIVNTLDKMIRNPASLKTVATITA
Chain of GSK3BB (P49841 35-386): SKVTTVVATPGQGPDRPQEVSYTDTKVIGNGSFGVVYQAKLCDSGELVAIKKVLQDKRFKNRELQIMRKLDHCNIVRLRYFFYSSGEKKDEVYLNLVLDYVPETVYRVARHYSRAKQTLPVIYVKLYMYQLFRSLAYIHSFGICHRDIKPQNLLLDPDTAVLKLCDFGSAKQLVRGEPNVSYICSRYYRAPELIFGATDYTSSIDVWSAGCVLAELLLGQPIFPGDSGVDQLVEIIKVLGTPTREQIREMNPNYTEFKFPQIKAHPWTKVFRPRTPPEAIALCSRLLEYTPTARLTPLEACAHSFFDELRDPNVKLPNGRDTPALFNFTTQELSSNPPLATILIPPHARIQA
Chain of SRCA (P12931 254-536): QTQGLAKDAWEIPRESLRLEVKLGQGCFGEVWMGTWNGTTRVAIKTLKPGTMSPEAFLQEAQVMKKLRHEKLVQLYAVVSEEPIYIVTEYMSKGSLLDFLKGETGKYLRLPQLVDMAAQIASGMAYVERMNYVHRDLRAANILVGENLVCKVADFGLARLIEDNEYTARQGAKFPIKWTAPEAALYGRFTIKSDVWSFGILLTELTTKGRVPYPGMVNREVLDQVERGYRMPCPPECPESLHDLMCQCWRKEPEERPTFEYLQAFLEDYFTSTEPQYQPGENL
Chain of EPHA7A (Q15375 590-899): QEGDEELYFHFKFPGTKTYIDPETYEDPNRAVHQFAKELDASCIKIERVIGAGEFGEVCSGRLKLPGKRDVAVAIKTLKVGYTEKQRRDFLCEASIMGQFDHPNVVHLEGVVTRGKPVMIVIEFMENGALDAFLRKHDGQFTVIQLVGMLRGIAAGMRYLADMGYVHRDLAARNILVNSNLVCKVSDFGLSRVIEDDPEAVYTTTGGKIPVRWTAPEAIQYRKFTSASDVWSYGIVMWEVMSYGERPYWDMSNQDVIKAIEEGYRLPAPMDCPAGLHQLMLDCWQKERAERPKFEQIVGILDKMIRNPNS
Chain of GSG2A (Q8TF76 465-798): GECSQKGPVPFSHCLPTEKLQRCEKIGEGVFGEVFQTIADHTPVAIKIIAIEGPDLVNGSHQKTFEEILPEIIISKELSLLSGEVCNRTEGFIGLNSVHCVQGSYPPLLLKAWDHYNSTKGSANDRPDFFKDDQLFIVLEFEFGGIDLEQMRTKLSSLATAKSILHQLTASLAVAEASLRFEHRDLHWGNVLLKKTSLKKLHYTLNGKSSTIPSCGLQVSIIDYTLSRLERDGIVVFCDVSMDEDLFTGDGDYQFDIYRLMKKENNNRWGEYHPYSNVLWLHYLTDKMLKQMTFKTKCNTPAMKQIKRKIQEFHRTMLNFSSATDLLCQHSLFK
Chain of MAPK8B (P45983 1-364): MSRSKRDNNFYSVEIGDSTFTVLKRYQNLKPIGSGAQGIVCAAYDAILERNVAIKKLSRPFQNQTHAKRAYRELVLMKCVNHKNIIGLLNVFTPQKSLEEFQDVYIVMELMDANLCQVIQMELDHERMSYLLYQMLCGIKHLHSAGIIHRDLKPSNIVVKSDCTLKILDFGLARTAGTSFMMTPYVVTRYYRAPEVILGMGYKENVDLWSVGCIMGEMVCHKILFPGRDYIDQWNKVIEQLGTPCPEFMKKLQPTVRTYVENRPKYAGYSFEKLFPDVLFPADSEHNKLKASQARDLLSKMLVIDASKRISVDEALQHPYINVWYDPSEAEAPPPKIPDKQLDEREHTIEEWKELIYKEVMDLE
Chain of KIT(V559D,V654A) (P10721 26-976 V559D/V654A): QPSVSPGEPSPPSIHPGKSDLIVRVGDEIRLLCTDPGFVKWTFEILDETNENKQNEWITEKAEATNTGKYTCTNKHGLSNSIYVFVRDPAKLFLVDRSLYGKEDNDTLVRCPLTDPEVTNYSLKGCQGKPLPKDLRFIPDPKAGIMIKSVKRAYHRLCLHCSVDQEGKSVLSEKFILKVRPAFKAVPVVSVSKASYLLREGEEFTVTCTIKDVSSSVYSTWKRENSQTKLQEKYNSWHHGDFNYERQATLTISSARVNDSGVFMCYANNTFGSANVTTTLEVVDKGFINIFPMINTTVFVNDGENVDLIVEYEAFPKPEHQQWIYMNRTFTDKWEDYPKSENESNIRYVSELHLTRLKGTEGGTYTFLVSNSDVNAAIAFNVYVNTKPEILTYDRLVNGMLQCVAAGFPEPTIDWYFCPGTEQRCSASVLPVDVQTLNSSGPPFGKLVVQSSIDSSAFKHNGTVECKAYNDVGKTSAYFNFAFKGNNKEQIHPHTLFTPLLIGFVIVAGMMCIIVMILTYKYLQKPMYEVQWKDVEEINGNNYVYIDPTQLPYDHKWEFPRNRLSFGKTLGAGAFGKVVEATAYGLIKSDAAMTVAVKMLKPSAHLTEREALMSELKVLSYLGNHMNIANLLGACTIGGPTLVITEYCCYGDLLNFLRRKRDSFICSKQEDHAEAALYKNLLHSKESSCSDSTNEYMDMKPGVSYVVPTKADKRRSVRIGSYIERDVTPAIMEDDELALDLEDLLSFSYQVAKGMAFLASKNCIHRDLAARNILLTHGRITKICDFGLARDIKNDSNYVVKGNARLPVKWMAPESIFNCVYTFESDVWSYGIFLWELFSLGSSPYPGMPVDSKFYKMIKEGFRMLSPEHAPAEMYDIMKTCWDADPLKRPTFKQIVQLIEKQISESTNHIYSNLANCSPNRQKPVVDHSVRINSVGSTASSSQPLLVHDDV

CN1C(=O)[C@@H](N2CCc3c(nn(Cc4ccccc4)c3C(N)=O)C2=O)COc2cc(Cl)ccc21 [Compound 10, (S)-2-benzyl-6-(8-chloro-5-methyl-4-oxo-2,3,4,5-tetrahydrobenzo[b][1,4]oxazepin-3-yl)-7-oxo-4,5,6,7-tetrahydro-2H-pyrazolo[3,4-c]pyridine-3-carboxamide]
remaining activity at 0.1 µM [1]: 97%
remaining activity at 1 µM [2]: 92%
ΔTm at 10 µM [3]: -0.1 °C
ΔTm at 10 µM [4]: -0.2 °C
ΔTm at 10 µM [5]: -0.2 °C
ΔTm at 10 µM [6]: 0.2 °C
ΔTm at 10 µM [7]: 0.3 °C
ΔTm at 10 µM [8]: 0 °C
ΔTm at 10 µM [9]: 0.1 °C
ΔTm at 10 µM [10]: 0.1 °C
ΔTm at 10 µM [11]: 0.1 °C
ΔTm at 10 µM [12]: 0.1 °C
ΔTm at 10 µM [13]: 0 °C
ΔTm at 10 µM [14]: -1.9 °C
ΔTm at 10 µM [15]: 0.1 °C
ΔTm at 10 µM [16]: 0.2 °C
ΔTm at 10 µM [17]: 0.2 °C
ΔTm at 10 µM [18]: -0.6 °C
ΔTM [19]: -0.1 K
ΔTm at 10 µM [20]: 0 °C
ΔTm at 10 µM [21]: 0 °C
ΔTm at 10 µM [22]: 0.5 °C
ΔTm at 10 µM [23]: 0 °C
ΔTm at 10 µM [24]: 0.1 °C
ΔTm at 10 µM [25]: 0.1 °C
ΔTm at 10 µM [26]: 0.3 °C
ΔTm at 10 µM [27]: 0.1 °C
ΔTm at 10 µM [28]: 0.1 °C
ΔTm at 10 µM [29]: 0.1 °C
ΔTm at 10 µM [30]: 0.4 °C
ΔTm at 10 µM [31]: -0.2 °C
ΔTm at 10 µM [32]: 0 °C
ΔTm at 10 µM [33]: 0.1 °C
ΔTm at 10 µM [34]: 0.1 °C
ΔTm at 10 µM [35]: 0.1 °C
ΔTm at 10 µM [36]: -0.1 °C
remaining activity at 0.1 µM [37]: 100%
remaining activity at 1 µM [38]: 73%
